Test results: patent US20250066351A1, “PYRAZOLO[1,5-A]PYRIDIN-2,3-YL AMIDES AS KV7 CHANNEL ACTIVATORS” (Biohaven Therapeutics Ltd., priority 2022, published 2025)

Assays:
hKv7.2/7.3 [1] = biological target: T1, hKv7.2/7.3 (Homo sapiens, UniProt O43525+O43526); assay: Kv7.2/7.3 Activation Assay, QPatch planar patch-clamp single concentration screen; format: cell-based; details: increase in current over baseline, Kv7.2/Kv7.3 co-expressing HEK cells, compound concentration 3 μM, steady-state current at end of 2 s pulse to −30 mV
T1 construct: host or cells: HEK cells, tetracycline-inducible expression
Outline: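 Tetracycline-induced HEK cells expressing hKv7.2/7.3, recorded 24 h post-induction by automated whole-cell patch clamp (−80 mV hold, 2 s step to −30 mV). Compound tested at 3 μM (0.1% DMSO); fold increase in steady-state current at end of the −30 mV step over baseline.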

hKv7.2/7.3 [2] = biological target: T1, hKv7.2/7.3; assay: Kv7.2/7.3 Thallium Flux Assay; format: cell-based; parameters: key to Thallium Flux Kv7.2/7.3 Activity: 3-10 μM (*); 1-3 μM (**); <1 μM (***); NC stands for Not Calculable; details: EC50 of Kv7.2/Kv7.3 activation, responses normalized to retigabine 30 μM
From the text: The Thallium Flux Assay is used as a surrogate indicator of potassium channel activity.
The experimental protocol was adapted from the FluxOR™ II Green Potassium Ion Channel Assay User Guide (Pub. No. MAN0016084, Invitrogen). Conditions were optimized for the Kv7.2/7.3 cell line.
Cell Line: The hKv7.2/7.3 cell line was obtained from Chantest (Cleveland, OH 44128) cat. #CT6147.
Cell Culture: Kv7.2/7.3 cells were maintained in a media containing DMEM/F12; 50/50 (GIBCO cat. #11330), 10% Fetal Bovine Serum (FBS) (GIBCO cat. #26140), 100 units/mL Penicillin-Streptomycin (GIBCO cat. #15140), 0.005 mg/ml Blasticidin (SIGMA 15205), 0.5 mg/mL Geneticin (GIBCO cat. #10131), and 0.1 mg/mL Zeocin (GIBCO cat. #R25001). One day prior to experimentation, cells were plated in 96 well clear bottom plates (Corning cat. #353219) in a media without Blasticidin, Geneticin, or Zeocin. Channel expression was induced by adding tetracycline (Bioline cat. #BIO87030) at a final concentration of 10 ng/mL.
Compound Plates: The test compound is diluted in a mixture of 0.1% DMSO/extracellular solution with an eight-point concentration range from 0.014 μM to 30 μM. Serial dilutions were made on a Biomek NXP (BECKMAN COULTER).
Measurement and data analysis: A plate reader (Enspire, Perkin Elmer) is used to characterize the ion-channel modulating properties of novel compounds using an excitation wavelength of 475 nm and an emission wavelength of 530 nm. After a 15 sec baseline measurement, the stimulus buffer containing thallium and potassium is injected. A final endpoint measure is taken after 90 sec. Responses are normalized to positive control (retigabine, 30 μM max). Mean normalized responses at each concentration tested are fit to the standard Hill equation to generate an EC50 and maximal response.

Compound	QPatch Kv7.2/7.3 Activity (hKv7.2/7.3 [1])	EC50 (hKv7.2/7.3 [2]) [nM]	Thallium Flux Kv7.2/7.3 Activity (hKv7.2/7.3 [2])
CC(C)(C)CC(=O)Nc1nn2ccc(C#N)cc2c1C1CCC1 [Example 3, N-(5-cyano-3-cyclobutylpyrazolo[1,5-a]pyridin-2-yl)-3,3-dimethylbutanamide]	+ (2.0-3.99 (+))	< 1000	
CC(C)(O)CC(=O)Nc1nn2ccc(C(F)(F)F)cc2c1-c1ccc(F)cc1 [Example 14, N-(3-(4-fluorophenyl)-5-(trifluoromethyl)pyrazolo [1,5-a]pyridin-2-yl)-3-hydroxy-3-methylbutanamide]	+ (2.0-3.99 (+))	< 1000	
CC(C)(C)CC(=O)Nc1nn2ccc(C(C)(C)O)cc2c1C1CCC1 [Example 57, N-(3-cyclobutyl-5-(2-hydroxypropan-2-yl)pyrazolo[1,5-a]pyridin-2-yl)-3,3-dimethylbutanamide]	++ (4.0-5.99 (++))	< 1000	
C[C@@](O)(CC(=O)Nc1nn2ccc(C(F)(F)F)cc2c1C1CCC1)C1CC1 [Example 87, (R)-N-(3-cyclobutyl-5-(trifluoromethyl)pyrazolo[1,5-a]pyridin-2-yl)-3-cyclopropyl-3-hydroxybutanamide]	+ (2.0-3.99 (+))		
CC(C)(C)CC(=O)Nc1nn2ccc(C#N)cc2c1C(C)(C)C [Example 88, N-(3-(tert-butyl)-5-cyanopyrazolo[1,5-a]pyridin-2-yl)-3,3-dimethylbutanamide]			NC
CC(C)(C)c1c(NC(=O)CC(C)(C)C(F)(F)F)nn2ccc(C#N)cc12 [Example 89, N-(3-(tert-butyl)-5-cyanopyrazolo[1,5-a]pyridin-2-yl)-4,4,4-trifluoro-3,3-dimethylbutanamide]			NC
CC(C)(C)c1c(NC(=O)C[C@@H]2CC(F)(F)C2(F)F)nn2ccc(C#N)cc12 [Example 90, (R)-N-(3-(tert-butyl)-5-cyanopyrazolo[1,5-a]pyridin-2-yl)-2-(2,2,3,3-tetrafluorocyclobutyl) acetamide]			NC
CC(C)(C)CC(=O)Nc1nn2ccccc2c1C#N [Example 91, N-(3-cyanopyrazolo [1,5-a]pyridin-2-yl)-3,3-dimethylbutanamide]			NC
CCOC(=O)c1c(NC(=O)CC(C)(C)C)nn2ccccc12 [Example 92, ethyl 2-(3,3-dimethylbutanamido) pyrazolo[1,5-a]pyridine-3-carboxylate]			NC
CC(C)(C)CC(=O)Nc1nn2ccccc2c1C(C)(C)O [Example 93, N-(3-(2-hydroxypropan-2-yl)pyrazolo[1,5-a]pyridin-2-yl)-3,3-dimethylbutanamide]		< 1000	
N#Cc1ccn2nc(NC(=O)C[C@H]3CC(F)(F)C3(F)F)c(C3CCC3)c2c1 [Example 94, (S)-N-(5-cyano-3-cyclobutylpyrazolo[1,5-a]pyridin-2-yl)-2-(2,2,3,3-tetrafluorocyclobutyl) acetamide]		< 1000	
CC(C)(O)c1ccn2nc(NC(=O)C[C@H]3CC(F)(F)C3(F)F)c(C3CCC3)c2c1 [Example 95, (S)-N-(3-cyclobutyl-5-(2-hydroxypropan-2-yl)pyrazolo [1,5-a]pyridin-2-yl)-2-(2,2,3,3-tetrafluorocyclobutyl) acetamide]	+ (2.0-3.99 (+))	< 1000	
N#Cc1ccn2nc(NC(=O)C[C@@H]3CC(F)(F)C3(F)F)c(C3CCC3)c2c1 [Example 96, (R)-N-(5-cyano-3-cyclobutylpyrazolo[1,5-a]pyridin-2-yl)-2-(2,2,3,3-tetrafluorocyclobutyl) acetamide]			NC
N#Cc1ccn2nc(NC(=O)CC3(C(F)(F)F)CC3)c(C3CCC3)c2c1 [Example 97, N-(5-cyano-3-cyclobutylpyrazolo[1,5-a]pyridin-2-yl)-2-(1-(trifluoromethyl)cyclopropyl)acetamide]			NC
CC(C)(O)c1ccn2nc(NC(=O)C[C@@H]3CC(F)(F)C3(F)F)c(C3CCC3)c2c1 [Example 98, (R)-N-(3-cyclobutyl-5-(2-hydroxypropan-2-yl)pyrazolo[1,5-a]pyridin-2-yl)-2-(2,2,3,3-tetrafluorocyclobutyl) acetamide]		< 1000	
